The values that follow come from ChEMBL document CHEMBL1828556, “Synthesis, hypnotic properties and molecular modeling studies of 1,2,7,9-tetraaza-spiro[4.5]dec-2-ene-6,8,10-triones” (Eur J Med Chem, 2011).

Data set [1] concerns Mus musculus. The data set can be described thus: Potentiation of sodium thiopental-induced hypnotic/sedative activity in Albino mouse assessed as sleeping time at 25 mg/kg, ip administered 1 hr prior challenge relative to control. Format: functional. Conditions: route intraperitoneal.
Data set [2] deals with Mus musculus. The data set is described as follows: Toxicity in Albino mouse assessed as toxic symptoms at 250 mg/kg, ip after 24 hrs. The format is organism-based. Also on record: dose 250 mg/kg, route intraperitoneal. The following applies: in vivo.
Data set [3] deals with Mus musculus. The data set is described as follows: Toxicity in Albino mouse assessed as toxic symptoms at 750 mg/kg, ip after 24 hrs. The following applies: in vivo. On the set-up: dose 750 mg/kg, route intraperitoneal. The format is organism-based.
In data set [4] the test system is Mus musculus. The data set can be described thus: Toxicity in Albino mouse assessed as toxic symptoms at 500 mg/kg, ip after 24 hrs. The format is organism-based. Also on record: dose 500 mg/kg, route intraperitoneal. Conditions: in vivo.
The subject of data set [5] is Mus musculus. The data set is described as follows: Toxicity in Albino mouse assessed as mortality at 750 mg/kg, ip after 24 hrs. The format is organism-based. On the set-up: dose 750 mg/kg, route intraperitoneal. The following applies: in vivo.
Data set [6] has as its system Mus musculus. The data set can be described thus: Toxicity in Albino mouse assessed as mortality at 250 mg/kg, ip after 24 hrs. Format: organism-based. Also on record: dose 250 mg/kg, route intraperitoneal. The following applies: in vivo.
Data set [7] has as its system Mus musculus. The data set can be described thus: Toxicity in Albino mouse assessed as mortality at 500 mg/kg, ip after 24 hrs. The format is organism-based. Also on record: dose 500 mg/kg, route intraperitoneal. The following applies: in vivo.
The subject of data set [8] is Mus musculus. The data set is described as follows: Potentiation of sodium thiopental-induced hypnotic/sedative activity in Albino mouse assessed as time elapsed between injection of sodium thiopental and loss of righting reflex at 25 mg/kg, ip administered 1 hr prior challenge (Rvb =2.66 +/- 0.23 mins). The format is functional. Conditions: route intraperitoneal.

As for `CN1C(=O)N(C)C(=O)C2(C1=O)C(c1ccc(N(C)C)cc1)C(c1ccccc1)=NN2c1ccccc1` (stereo not drawn), the Activity in the data set on Mus musculus [1] was 299.4%; in the data set with Mus musculus [2], “Non-toxic”; in the data set with Mus musculus [3] it was “Non-toxic”; in the data set on Mus musculus [4], “Non-toxic”; in the data set on Mus musculus [5], “Non-toxic”; with Mus musculus [6], “Non-toxic”. Further, the Activity entry in the data set on Mus musculus [7] was “Non-toxic”. Besides, the Time in the data set on Mus musculus [8] was 2.91 min.
In the case of `Cc1ccc(C2C(c3ccccc3)=NN(c3ccccc3)C23C(=O)N(C)C(=O)N(C)C3=O)cc1` (stereo not drawn), the Activity in the data set on Mus musculus [1] is on record as 311.3%; in the data set on Mus musculus [2], “Non-toxic”; with Mus musculus [3] it was “Non-toxic”; in the data set with Mus musculus [4] it was “Non-toxic”; in the data set with Mus musculus [5], “Non-toxic”; with Mus musculus [6], “Non-toxic”. Moreover, in the data set on Mus musculus [7], the Activity entry is listed as “Non-toxic”. Further, in the data set on Mus musculus [8], the Time turned out to be 2.92 min.
Regarding `CN1C(=O)N(C)C(=O)C2(C1=O)C(c1cccs1)C(c1ccccc1)=NN2c1ccccc1` (stereo not drawn), the Activity with Mus musculus [1] is recorded as -25.8%. Besides, the Time with Mus musculus [8] is reported as 1.79 min.
Regarding `CN1C(=O)N(C)C(=O)C2(C1=O)C(c1ccc(F)cc1)C(c1ccccc1)=NN2c1ccccc1` (stereo not drawn), the Activity in the data set on Mus musculus [1] is given as 358.6%; in the data set with Mus musculus [2] it was “Non-toxic”; in the data set with Mus musculus [3], “Non-toxic”; in the data set on Mus musculus [4], “Non-toxic”; with Mus musculus [5], “Non-toxic”; with Mus musculus [6] it was “Non-toxic”. The Activity result in the data set with Mus musculus [7] is on record as “Non-toxic”. In addition, the Time in the data set on Mus musculus [8] stood at 2 min.
As for `CN1C(=O)N(C)C(=O)C2(C1=O)C(c1ccc(Cl)cc1)C(c1ccccc1)=NN2c1cccc(Cl)c1` (stereo not drawn), the Activity is given as 340.9% with Mus musculus [1]; “Non-toxic” with Mus musculus [2]; “Non-toxic” in the data set with Mus musculus [3]; “Non-toxic” with Mus musculus [4]; “Non-toxic” in the data set on Mus musculus [5]; “Non-toxic” with Mus musculus [6]. Also, the Activity result in the data set on Mus musculus [7] is on record as “Non-toxic”. Besides, the Time with Mus musculus [8] turned out to be 2.3 min.
On to `COc1ccc(C2C(c3ccccc3)=NN(c3ccccc3)C23C(=O)N(C)C(=O)N(C)C3=O)cc1` (stereo not drawn), for which the Activity with Mus musculus [1] is listed as -20.3%. The Time in the data set on Mus musculus [8] is 5.25 min.
The like results for `CN1C(=O)N(C)C(=O)C2(C1=O)C(c1ccc(Cl)cc1)C(c1ccccc1)=NN2c1ccccc1` (stereo not drawn) were, in that order, 20% and 3.47 min.
Take `CN1C(=O)N(C)C(=O)C2(C1=O)C(c1ccc(Cl)cc1Cl)C(c1ccccc1)=NN2c1ccccc1` (stereo not drawn): the Activity in the data set on Mus musculus [1] is recorded as 501.2%; in the data set with Mus musculus [2], “Non-toxic”; with Mus musculus [3], “Non-toxic”; in the data set with Mus musculus [4] it was “Non-toxic”; in the data set on Mus musculus [5] it was “Non-toxic”; with Mus musculus [6], “Non-toxic”. In addition, the Activity entry in the data set with Mus musculus [7] was “Non-toxic”. Besides, the Time in the data set on Mus musculus [8] is on record as 2.12 min.
As for `Cc1ccc(C2C(c3ccccc3)=NN(c3ccccc3)C23C(=O)N(C)C(=O)N(C)C3=O)o1` (stereo not drawn), the Activity in the data set with Mus musculus [1] is 904%; with Mus musculus [2], “Non-toxic”; in the data set on Mus musculus [3], “Non-toxic”; in the data set on Mus musculus [4] it was “Non-toxic”; with Mus musculus [5], “Non-toxic”; with Mus musculus [6] it was “Non-toxic”. For the same molecule, in the data set on Mus musculus [7], the Activity entry is reported as “Non-toxic”. For the same molecule, the Time in the data set on Mus musculus [8] came out at 2.66 min.
Regarding `CN1C(=O)N(C)C(=O)C2(C1=O)C(c1ccccc1)C(c1ccccc1)=NN2c1cccc(Cl)c1` (stereo not drawn), the Activity in the data set with Mus musculus [1] amounted to 192%. The Time with Mus musculus [8] is 1.85 min.
The like results for `CN1C(=O)N(C)C(=O)C2(C1=O)C(c1ccccc1)C(c1ccccc1)=NN2c1ccccc1` (stereo not drawn) were, in that order, 1.3% and 3 min.
